Laboratory results reported in ChEMBL document CHEMBL4118035, “Total Synthesis of the Claimed Structure of (±)-Hyptinin and Structural Revision of Natural Hyptinin” (J Nat Prod, 2017).

Assay: Growth inhibition of ATL patient-derived S1T cells after 72 hrs by WST-8 assay
Assay type: functional
Details: Homo sapiens

Row | SMILES | IC50
1 | COc1cc(C2C3=C(Cc4c2cc2c(c4OC)OCO2)C(=O)OC3)cc(OC)c1OC (configuration not stated) | 7 nM
2 | COc1cc(C2C3=C(Cc4cc5c(cc42)OCO5)C(=O)OC3)cc(OC)c1OC (configuration not stated) | 5.1 nM
